Assay results: US20260209171A1, “CATIONIC LIPIDS AND MANUFACTURING METHOD THEREFOR” (SAMYANG HOLDINGS CORPORATION, priority 2022, published 2026)

How the values were obtained:
[1] = Particle characteristics of the prepared formulation by particle size analyzer (Dynamic Light Scattering, DLS); assay type: physicochemical; settings: mRNA formulation, compound:DOPE:Cholesterol:DMG-PEG=50:10:38.5:1.5, N/P ratio 6; for PDI (PI) / Z-average: DLS
Method: (§1) According to the following table 1, the materials required for preparing the formulation were dissolved in each dilution solvent and prepared at the required concentration. When dissolving, the materials were kept at room temperature and then the solvent was added to dissolve them.
(§2) The required amounts of the raw materials were mixed in order to meet the N/P ratio (amine group of lipid/phosphate group of mRNA) of 6 and each compound of formulas A to G:DOPE:Cholesterol:DMG-PEG=50:10:38.5:1.5. Ethanol was added to the ethanol layer so that the molecular total of all raw materials was within 12.5 mM, and the aqueous phase and ethanol phase were mixed maintaining a volume ratio of 3:1. After the mixing, to reduce the total ethanol content, buffer exchange was performed as follows: The mixture solution was concentrated by centrifugation at 4,000 rpm using an Amicon-Ultra tube filter (Merk Millipore, UFC505096 or UFC805024, pore size: 50K, volume: 15 mL), then diluted with PBS and centrifuged to concentrate. This process was repeated to exchange the buffer.
(§3) The more concrete procedure is as follows: • 1) Two autoclaved tubes were prepared (tubes (A) and (B)). • 2) In tube (A), each compound of formulas A to G, DOPE, cholesterol and DMG-PEG in molar quantities calculated according to the experimental conditions were sequentially added and mixed by vortexing. • 3) In the ethanol phase, when necessary, ethanol was added so that the molecular total of all raw materials was within 12.5 mM. • 4) In tube (B), mRNA and 20 mM sodium acetate buffer (pH 4.6) were mixed. At that time, the ratio was calculated and added so that the aqueous phase was total three times the amount of the ethanol phase. • 5) Mixing of Tube (A) and Tube (B) was performed using a Microfluidics (Ignite, Precision Nanosystem) device. Microfluidics operating conditions were FRR (Flow Rate Ratio) of C:R=3:1 and […] (Total Flow Rate) of 12 mL/min. • 6) The resulting mixture from step 5) was centrifuged at 4,000 rpm using an Amicon-Ultra tube filter (50K), and the process of concentration and dilution was repeated to remove excess ethanol, and then concentrated to a final x mg/ml (theoretical concentration).
(§4) • 1) For the prepared formulation, particle characteristics were confirmed using a particle size analyzer (Dynamic Light Scattering, DLS), and the results are shown in Table 2 below. • 2) For the prepared formulation, mRNA encapsulation efficiency was confirmed through Ribo-green assay, and the results are shown in Table 1 below.

[2] = mRNA encapsulation efficiency by Ribo-green assay; assay type: physicochemical; settings: mRNA formulation, compound:DOPE:Cholesterol:DMG-PEG=50:10:38.5:1.5, N/P ratio 6
Method: as §1, §2, §3, §4

Compound | Zeta-potential [1] [mV] | PDI (PI) [1] | Z-average [1] [nm] | Encapsulation efficiency [2] [%]
CCCCCCCCC(OC(=O)CCCCCCCN(C)CCCCCCCC(=O)OC(CCCCCCCC)C1CC1)C1CC1 (centres unmarked) [Formula A] | −10.96 ± 2.69 | 0.09 ± 0.01 | 135.0 ± 0.46 | –
CCCCCCC(OC(=O)CCCCCN(C)CCCCCC(=O)OC(CCCCCC)C1CC1)C1CC1 (centres unmarked) [Formula B] | −4.30 ± 3.03 | 0.12 ± 0.03 | 183.3 ± 2.86 | –
CCCCCCCCCCC(OC(=O)CCCCCCCN(C)CCCCCCCC(=O)OC(CCCCCCCCCC)C1CC1)C1CC1 (centres unmarked) [Formula C] | −7.57 ± 4.12 | 0.12 ± 0.00 | 120.0 ± 2.38 | 95.4 ± 0.2
CCCCCCCCC(OC(=O)CCCCCCCN(C)CCCCCCCC(=O)OC(CCCCCCCC)C1CCCCC1)C1CCCCC1 (centres unmarked) [Formula D] | −2.37 ± 0.39 | 0.07 ± 0.04 | 154.6 ± 2.75 | 97.6 ± 0.2
CCCCCCCCC(OC(=O)CCCCCCCN(CCO)CCCCCCCC(=O)OC(CCCCCCCC)C1CC1)C1CC1 (centres unmarked) [Formula E] | −4.69 ± 1.56 | 0.10 ± 0.04 | 127.4 ± 0.52 | 98.4 ± 0.5
CCCCCCCCC(C(=O)OCCCCCCCN(C)CCCCCCCOC(=O)C(CCCCCCCC)C1CC1)C1CC1 (centres unmarked) [Formula F] | −6.24 ± 3.13 | 0.12 ± 0.02 | 131.5 ± 0.12 | 91.1 ± 0.2
CCCCCCC(OC(=O)CCCCCCCN(C)CCCCCCCC(=O)OC(CCCCCC)C1CC1)C1CC1 (centres unmarked) [Formula G] | −6.93 ± 1.48 | 0.17 ± 0.02 | 194.9 ± 3.59 | 92.1 ± 0.1
